These results are taken from ChEMBL document CHEMBL1137683, “Synthesis and in vitro cysticidal activity of new benzimidazole derivatives” (Eur J Med Chem, 2009).

Data set [1] can be described thus: Octanol-water partition coefficient, log P of the compound. The format is physicochemical.
Data set [2] deals with Taenia crassiceps. Put plainly: Antiparasitic activity against Taenia crassiceps cysts ORF strain assessed as cysts mortality at 0.28 uM after 11 days by Trypan blue exclusion test. The data set is classed as functional.
For data set [3], the system named is Taenia crassiceps. Briefly: Antiparasitic activity against Taenia crassiceps cysts ORF strain assessed as cysts mortality at 1.70 uM after 11 days by Trypan blue exclusion test. The format is functional.
For data set [4], the system named is Taenia crassiceps. Put plainly: Antiparasitic activity against Taenia crassiceps cysts WFU strain assessed as cysts mortality at 0.28 uM after 11 days by Trypan blue exclusion test. The data set is classed as functional.
In data set [5] the test system is Taenia crassiceps. Put plainly: Antiparasitic activity against Taenia crassiceps cysts WFU strain assessed as cysts mortality at 1.70 uM after 11 days by Trypan blue exclusion test. The format is functional.

In the case of `CNC(=O)c1ccc2[nH]c(NC(=O)OC)nc2c1`, in data set [1], the log partition coefficient (logP) (commonly a log measure of how a compound divides between an organic and an aqueous phase) amounted to 0.68. For the same compound, the Activity in data set [2] and in data set [3] was 0% throughout.
Turning to `COC(=O)Nc1nc2cc(C(=O)N3CCCCC3)ccc2[nH]1`, in data set [1], the logP worked out at 1.65. Besides, the Activity in data set [2] turned out to be 37%; in data set [3] it was 62%; in data set [4] it was 9.3%; in data set [5], 16.7%.
In the case of `COC(=O)Nc1nc2cc(Oc3cccc4ccccc34)c(Cl)cc2[nH]1`, the log partition coefficient (logP) in data set [1] is 3.56.
Turning to `COC(=O)Nc1nc2cc(C(=O)OCc3ccc([N+](=O)[O-])cc3)ccc2[nH]1`, in data set [1], the lipophilicity (logP) was 3.12. Besides, the Activity amounted to 41% in data set [2], 68% in data set [3], 22.6% in data set [4] and 26% in data set [5].
Regarding `CSc1nc2cc(C(=O)N3CCN(C)CC3)ccc2[nH]1`, the Activity in data set [2] and in data set [3] was 0% throughout.
As to `CSc1nc2cc(C(=O)N3CCCCC3)ccc2[nH]1`, the Activity in data set [2] and in data set [3] was 0% each time.
With `CSc1nc2cc(C(=O)N3CCCCC3)c(Cl)cc2[nH]1`, the Activity in data set [2] and in data set [3] was 0% in each case.
In the case of `CCCSc1ccc2[nH]c(N(C)C(=O)OC)nc2c1`, the Activity in data set [2] and in data set [3] was 0% in each case.
For the compound `CCCSc1ccc2nc(NC(=O)OC)n(C)c2c1`, the Activity in data set [2] and in data set [3] was 0% each time.
Consider `CCCSc1ccc2c(c1)nc(NC(=O)OC)n2C`, for which the Activity in data set [2] and in data set [3] was 0% each time.
For the compound `CSc1nc2cc(C(=O)N3CCC(C)CC3)ccc2[nH]1`, the Activity in data set [2] and in data set [3] was 0% in each case.
With `CSc1nc2cc(C(=O)N3CCC(C)CC3)c(Cl)cc2[nH]1`, the Activity in data set [2] and in data set [3] was 0% throughout.
In data set [1], `COC(=O)Nc1nc2cc(Cl)ccc2[nH]1` gave a logP of 2.09. In addition, the Activity was determined as 15% in data set [2], 23% in data set [3], 5% in data set [4] and 8% in data set [5].
The matching figures for `CCC[S+]([O-])c1ccc2[nH]c(NC(=O)OC)nc2c1` (stereo not given) [ALBENDAZOLE OXIDE]: 1.54, 46%, 88%, 25% and 35%.
